Target: T1, plant Photosystem II (PSII), D1 protein QB site, pea (Lathyrus oleraceus, UniProt P06585)
T1 construct: gene psbA; native D1 within whole PSII complex (D1/D2 reaction centre) in isolated thylakoid membranes from 4-week-old pea leaves; no tag, not purified further
Experiment: DPIP photoreduction (Hill reaction, […] nm) in isolated thylakoid membranes, Langmuir isotherm fit
Type: biochemical
Settings: pH 7.2, 100 µM DPIP, 5 mM NH4Cl, 5 mM MgCl2, 15 µg/mL Chl, white light 500 µmol photons m^-2 s^-1, 10 min dark preincubation at room temperature, competitive with plastoquinone, read-out: DPIP Photoreduction / I50

Structure (SMILES)	IC50
CC(C)N1C(=O)c2ccccc2NS1(=O)=O [Bentazon]	6160 nM
CN(C)C(=O)Nc1ccc(Cl)c(Cl)c1 [Diuron]	71.8 nM
CSc1nnc(C(C)(C)C)c(=O)n1N [Metribuzin]	156 nM
CCNc1nc(Cl)nc(NC(C)(C)C)n1 [Terbuthylazine]	110 nM
